# Reference: ChEMBL document CHEMBL3758091, “Identification of N-(6-mercaptohexyl)-3-(4-pyridyl)-1H-pyrazole-5-carboxamide and its disulfide prodrug as potent histone deacetylase inhibitors with in vitro and in vivo anti-tumor efficacy” (Eur J Med Chem, 2016)
# Columns and labels:
# [1] = tested on: Mus musculus; assay: Toxicity in athymic nude mouse xenografted with human HCT116 cells assessed as reduction in body weight at 40 mg/kg, ip qd administered for 14 days measured every other day during compound dosing; format: organism-based, HCT-116; conditions: in vivo, 336 h
# [2] = tested on: HT-29; assay: Growth inhibition of human HT-29 cells after 96 hrs by MTT assay; format: functional
# [3] = tested on: Mus musculus; assay: Toxicity in athymic nude mouse xenografted with human HCT116 cells assessed as mortality at 40 mg/kg, ip qd administered for 14 days measured every other day during compound dosing; format: organism-based, HCT-116; conditions: in vivo, 336 h
# [4] = tested on: MCF7; assay: cells; format: functional; conditions: Homo sapiens, MCF7, 96 h
# Description: Growth inhibition of human MCF7 cells after 96 hrs by MTT assay
# [5] = cells; format: functional; conditions: Homo sapiens, HCT-116, 96 h
# Description: Growth inhibition of human HCT116 cells after 96 hrs by MTT assay
# [6] = Antitumor activity against human HCT116 cells xenografted in athymic nude mouse assessed as tumor growth inhibition at 40 mg/kg, ip qd administered for 14 days measured every other day during compound dosing; format: functional; conditions: HCT-116, ip, 336 h, read-out: TGI
# [7] = cells; format: functional; conditions: Homo sapiens, ASPC1, 96 h
# Description: Growth inhibition of human Aspc-1 cells after 96 hrs by MTT assay
# [8] = target: T1, Protein deacetylase HDAC6 (Homo sapiens) (UniProt Q9UBN7); assay: Inhibition of HDAC6 in human HCT116 cells assessed as increase in acetylated tubulin level after 24 hrs by Western blot analysis; format: cell-based; conditions: HCT-116
# T1 sequence (whole entry): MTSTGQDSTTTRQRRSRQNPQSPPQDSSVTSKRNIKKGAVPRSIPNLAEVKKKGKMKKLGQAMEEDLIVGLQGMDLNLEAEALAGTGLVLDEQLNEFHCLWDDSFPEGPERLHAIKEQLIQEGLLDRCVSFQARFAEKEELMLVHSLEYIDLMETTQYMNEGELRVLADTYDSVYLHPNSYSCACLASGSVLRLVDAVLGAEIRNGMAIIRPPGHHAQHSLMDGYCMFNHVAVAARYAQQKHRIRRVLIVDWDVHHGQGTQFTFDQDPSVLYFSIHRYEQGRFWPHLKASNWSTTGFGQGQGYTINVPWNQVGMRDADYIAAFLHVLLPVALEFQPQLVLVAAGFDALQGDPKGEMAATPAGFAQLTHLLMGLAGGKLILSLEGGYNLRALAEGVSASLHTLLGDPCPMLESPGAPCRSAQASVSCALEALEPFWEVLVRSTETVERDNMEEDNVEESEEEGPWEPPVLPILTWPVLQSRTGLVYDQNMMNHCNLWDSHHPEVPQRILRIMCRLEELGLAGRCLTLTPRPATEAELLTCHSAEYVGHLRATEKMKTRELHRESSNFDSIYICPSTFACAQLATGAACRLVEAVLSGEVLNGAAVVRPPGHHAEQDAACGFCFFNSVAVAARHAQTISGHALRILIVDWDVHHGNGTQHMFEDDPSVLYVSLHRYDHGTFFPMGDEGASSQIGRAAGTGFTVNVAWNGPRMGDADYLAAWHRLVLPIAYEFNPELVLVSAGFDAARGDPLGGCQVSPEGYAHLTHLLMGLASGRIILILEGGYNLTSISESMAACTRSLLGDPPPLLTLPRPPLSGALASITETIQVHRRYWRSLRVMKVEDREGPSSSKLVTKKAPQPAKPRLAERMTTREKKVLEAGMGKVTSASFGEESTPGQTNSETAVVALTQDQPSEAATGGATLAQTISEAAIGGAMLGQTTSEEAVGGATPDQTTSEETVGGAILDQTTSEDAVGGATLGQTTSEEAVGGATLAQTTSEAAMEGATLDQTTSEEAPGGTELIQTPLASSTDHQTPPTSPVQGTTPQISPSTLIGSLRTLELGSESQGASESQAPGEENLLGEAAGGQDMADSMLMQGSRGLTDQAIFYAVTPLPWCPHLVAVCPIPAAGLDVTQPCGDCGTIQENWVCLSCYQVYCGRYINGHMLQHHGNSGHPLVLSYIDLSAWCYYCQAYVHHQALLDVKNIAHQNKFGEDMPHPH
# [9] = tested on: A549; assay: cells; format: functional; conditions: Homo sapiens, A549, 96 h
# Description: Growth inhibition of human A549 cells after 96 hrs by MTT assay
# [10] = tested on: MDA-MB-231; assay: cells; format: functional; conditions: Homo sapiens, MDA-MB-231, 96 h
# Description: Growth inhibition of human MDA-MB-231 cells after 96 hrs by MTT assay
# [11] = cells; format: functional; conditions: Homo sapiens, PC-3, 96 h
# Description: Growth inhibition of human PC3 cells after 96 hrs by MTT assay
# [12] = Cytotoxicity against HEK293 cells assessed as growth inhibition after 96 hrs by MTT assay; conditions: human
# [13] = target: T2, Histone deacetylase 1 (Homo sapiens, UniProt Q13547); assay: Inhibition of HDAC1 in human HCT116 cells assessed as increase in acetylated histone H3 level after 24 hrs by Western blot analysis; format: cell-based; conditions: HCT-116
# [14] = Antitumor activity against human HCT116 cells xenografted in athymic nude mouse assessed as tumor growth inhibition at 80 mg/kg, ip qd administered for 14 days measured every other day during compound dosing; format: functional; conditions: HCT-116, ip, 336 h, read-out: TGI
# [15] = tested on: HCT-116; assay: Antitumor activity against human HCT116 cells xenografted in ip dosed athymic nude mouse assessed as tumor growth inhibition qd administered for 14 days measured every other day during compound dosing; format: functional, organism-based
# [16] = tested on: Mus musculus; assay: Toxicity in athymic nude mouse xenografted with human HCT116 cells assessed as mortality at 40 to 80 mg/kg, ip qd administered for 14 days measured every other day during compound dosing; format: organism-based, HCT-116; conditions: in vivo, 336 h
# [17] = tested on: Mus musculus; assay: Toxicity in athymic nude mouse xenografted with human HCT116 cells assessed as reduction in body weight at 40 to 80 mg/kg, ip qd administered for 14 days measured every other day during compound dosing; format: organism-based, HCT-116; conditions: in vivo, 336 h
# [18] = target: Histone deacetylase; assay: Inhibition of HDAC in human HeLa cell nuclear extract using Boc-Lys(Ac)-AMC as substrate preincubated for 15 mins followed by substrate addition measured after 60 mins by fluorescence-based assay
# [19] = target: Histone deacetylase 2 (Homo sapiens, UniProt Q92769); assay: Inhibition of recombinant human HDAC2 using Boc-Lys(Ac)-AMC as substrate preincubated for 15 mins followed by substrate addition measured after 60 mins by fluorescence-based assay
# [20] = target: Histone deacetylase 3 (Homo sapiens, UniProt O15379); assay: Inhibition of recombinant human HDAC3 using Boc-Lys(Ac)-AMC as substrate preincubated for 15 mins followed by substrate addition measured after 60 mins by fluorescence-based assay
# [21] = target: Histone deacetylase 4 (Homo sapiens, UniProt P56524); assay: Inhibition of recombinant human HDAC4 using Boc-Lys(TFA)-AMC as substrate preincubated for 15 mins followed by substrate addition measured after 60 mins by fluorescence-based assay
# [22] = target: T2, Histone deacetylase 1; assay: Inhibition of recombinant human HDAC1 using Boc-Lys(Ac)-AMC as substrate preincubated for 15 mins followed by substrate addition measured after 60 mins by fluorescence-based assay
# [23] = target: T3, Histone deacetylase 8 (Homo sapiens, UniProt Q9BY41); assay: Inhibition of recombinant human HDAC8 using Boc-Lys(TFA)-AMC as substrate preincubated for 15 mins followed by substrate addition measured after 60 mins by fluorescence-based assay
# T3 sequence (Q9BY41 whole entry): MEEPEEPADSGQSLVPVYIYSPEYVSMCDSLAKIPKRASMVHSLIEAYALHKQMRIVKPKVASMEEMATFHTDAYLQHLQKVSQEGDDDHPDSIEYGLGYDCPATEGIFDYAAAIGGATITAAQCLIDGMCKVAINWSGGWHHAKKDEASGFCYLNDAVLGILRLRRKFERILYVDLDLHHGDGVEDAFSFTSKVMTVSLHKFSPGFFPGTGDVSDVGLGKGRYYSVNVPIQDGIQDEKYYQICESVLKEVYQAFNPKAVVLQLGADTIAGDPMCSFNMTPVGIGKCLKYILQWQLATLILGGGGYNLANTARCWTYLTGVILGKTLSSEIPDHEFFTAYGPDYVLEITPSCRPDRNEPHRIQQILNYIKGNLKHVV
# [24] = target: T4, Protein deacetylase HDAC6 (Homo sapiens, UniProt Q9UBN7); assay: Inhibition of recombinant human HDAC6 using Boc-Lys(Ac)-AMC as substrate preincubated for 15 mins followed by substrate addition measured after 60 mins by fluorescence-based assay
# T4 sequence (Q9UBN7 whole entry): T1 sequence (whole entry)
# [25] = target: T5, Histone deacetylase 11 (Homo sapiens, UniProt Q96DB2); assay: Inhibition of recombinant human HDAC11 using Boc-Lys(TFA)-AMC as substrate preincubated for 15 mins followed by substrate addition measured after 60 mins by fluorescence-based assay
# T5 sequence (Q96DB2 whole entry): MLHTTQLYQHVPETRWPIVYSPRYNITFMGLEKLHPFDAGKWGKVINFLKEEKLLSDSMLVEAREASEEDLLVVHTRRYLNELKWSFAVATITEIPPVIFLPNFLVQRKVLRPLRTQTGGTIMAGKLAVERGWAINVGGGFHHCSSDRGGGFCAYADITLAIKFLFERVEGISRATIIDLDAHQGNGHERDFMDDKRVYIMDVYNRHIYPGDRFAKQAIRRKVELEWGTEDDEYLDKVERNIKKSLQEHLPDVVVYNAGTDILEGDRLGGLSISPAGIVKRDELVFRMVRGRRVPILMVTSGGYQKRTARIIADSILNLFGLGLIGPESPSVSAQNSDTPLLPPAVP
# T2 sequence (Q13547 whole entry): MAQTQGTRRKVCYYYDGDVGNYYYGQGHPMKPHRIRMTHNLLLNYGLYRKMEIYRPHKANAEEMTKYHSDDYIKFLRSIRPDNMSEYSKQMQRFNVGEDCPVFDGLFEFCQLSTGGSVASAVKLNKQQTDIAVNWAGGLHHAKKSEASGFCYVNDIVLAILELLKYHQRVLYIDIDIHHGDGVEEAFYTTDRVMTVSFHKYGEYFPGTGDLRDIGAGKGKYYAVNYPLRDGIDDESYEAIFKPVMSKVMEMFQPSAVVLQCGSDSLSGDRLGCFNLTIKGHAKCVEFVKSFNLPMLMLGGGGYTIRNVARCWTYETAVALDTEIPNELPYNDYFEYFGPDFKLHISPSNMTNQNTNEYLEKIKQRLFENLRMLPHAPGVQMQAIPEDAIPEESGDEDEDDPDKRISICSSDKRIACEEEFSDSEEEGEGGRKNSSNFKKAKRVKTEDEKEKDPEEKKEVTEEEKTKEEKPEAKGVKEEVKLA
# Chain of Histone deacetylase 3 (O15379 whole entry): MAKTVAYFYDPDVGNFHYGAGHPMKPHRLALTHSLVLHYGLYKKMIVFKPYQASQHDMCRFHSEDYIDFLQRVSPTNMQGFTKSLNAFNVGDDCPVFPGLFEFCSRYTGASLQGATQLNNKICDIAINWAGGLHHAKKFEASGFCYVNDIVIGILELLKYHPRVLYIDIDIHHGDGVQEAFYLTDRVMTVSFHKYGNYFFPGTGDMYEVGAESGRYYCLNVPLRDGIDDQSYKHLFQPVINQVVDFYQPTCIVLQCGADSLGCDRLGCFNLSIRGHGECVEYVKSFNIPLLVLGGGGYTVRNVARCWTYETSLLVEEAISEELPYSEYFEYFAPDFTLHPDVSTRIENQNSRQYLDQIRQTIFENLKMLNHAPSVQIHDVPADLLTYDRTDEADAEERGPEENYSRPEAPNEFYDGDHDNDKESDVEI
# Chain of Histone deacetylase 2 (Q92769 whole entry): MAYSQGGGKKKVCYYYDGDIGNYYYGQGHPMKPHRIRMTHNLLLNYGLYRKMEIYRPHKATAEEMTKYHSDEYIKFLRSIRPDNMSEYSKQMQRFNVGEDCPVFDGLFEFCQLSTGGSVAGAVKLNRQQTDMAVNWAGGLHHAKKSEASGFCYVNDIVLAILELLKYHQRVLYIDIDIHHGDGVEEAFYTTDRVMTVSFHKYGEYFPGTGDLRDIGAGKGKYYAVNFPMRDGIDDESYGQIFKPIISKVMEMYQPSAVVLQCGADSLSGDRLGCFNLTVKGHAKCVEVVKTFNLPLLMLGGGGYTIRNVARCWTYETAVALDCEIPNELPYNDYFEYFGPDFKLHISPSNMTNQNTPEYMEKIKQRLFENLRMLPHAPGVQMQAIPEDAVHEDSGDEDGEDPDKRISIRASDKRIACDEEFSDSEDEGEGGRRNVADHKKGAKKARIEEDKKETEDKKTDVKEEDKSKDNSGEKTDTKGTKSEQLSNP
# Chain of Histone deacetylase 4 (P56524 whole entry): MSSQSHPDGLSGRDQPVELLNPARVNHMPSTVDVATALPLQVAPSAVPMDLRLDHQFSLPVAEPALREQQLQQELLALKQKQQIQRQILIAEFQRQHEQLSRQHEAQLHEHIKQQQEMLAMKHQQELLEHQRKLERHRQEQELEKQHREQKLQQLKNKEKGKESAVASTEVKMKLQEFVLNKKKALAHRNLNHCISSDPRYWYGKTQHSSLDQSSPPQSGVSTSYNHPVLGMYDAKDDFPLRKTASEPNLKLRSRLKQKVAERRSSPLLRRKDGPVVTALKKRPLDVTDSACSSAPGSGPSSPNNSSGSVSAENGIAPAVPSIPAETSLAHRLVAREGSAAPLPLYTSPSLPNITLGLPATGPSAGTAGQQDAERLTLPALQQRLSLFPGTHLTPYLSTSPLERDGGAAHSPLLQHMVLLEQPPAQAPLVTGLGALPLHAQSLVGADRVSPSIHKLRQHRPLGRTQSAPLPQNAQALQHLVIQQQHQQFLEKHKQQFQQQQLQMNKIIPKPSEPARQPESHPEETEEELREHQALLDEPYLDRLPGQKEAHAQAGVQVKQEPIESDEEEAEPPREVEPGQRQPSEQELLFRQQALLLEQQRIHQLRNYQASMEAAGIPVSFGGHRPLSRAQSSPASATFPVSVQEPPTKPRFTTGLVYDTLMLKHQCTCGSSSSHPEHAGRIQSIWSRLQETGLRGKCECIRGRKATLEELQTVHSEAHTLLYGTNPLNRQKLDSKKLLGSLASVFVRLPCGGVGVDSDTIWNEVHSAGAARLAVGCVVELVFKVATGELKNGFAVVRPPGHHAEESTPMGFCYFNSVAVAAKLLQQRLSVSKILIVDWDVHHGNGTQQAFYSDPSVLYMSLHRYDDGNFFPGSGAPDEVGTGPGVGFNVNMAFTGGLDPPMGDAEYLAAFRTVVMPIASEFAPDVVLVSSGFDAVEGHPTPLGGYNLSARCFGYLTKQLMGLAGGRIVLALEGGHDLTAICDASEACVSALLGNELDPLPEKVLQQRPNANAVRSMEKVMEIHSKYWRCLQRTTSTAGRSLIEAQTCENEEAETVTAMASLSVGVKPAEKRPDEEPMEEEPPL
SMILES,GI50 [4],GI50 [5],inhibition in vivo at 40 mg/kg [6],GI50 [7],inhibition [8],GI50 [9],GI50 [10],GI50 [11],GI50 at 96 h [12],"GI50 ([2]; Homo sapiens, HT-29, 96 h)",inhibition [13],also measured
O=C(CCCCCCC(=O)Nc1ccccc1)NO [VORINOSTAT],–,–,–,–,–,–,–,–,–,–,–,Activity [1]: Non-toxic; GI50 [2]: 2.88 µM; Activity [3]: Non-toxic
O=C(NCCCCCCSSCCCCCCNC(=O)c1cc(-c2cccnc2)n[nH]1)c1cc(-c2cccnc2)n[nH]1,3.79 µM,3.03 µM,28%,3.6 µM,Dose-dependent effect,5.31 µM,10.3 µM,1.25 µM,13.5 µM,5.29 µM,Dose-dependent effect,–
O=C(NCCCCCCSSCCCCCCNC(=O)c1cc(-c2ccncc2)n[nH]1)c1cc(-c2ccncc2)n[nH]1,7.15 µM,8.93 µM,27%,25.3 µM,Dose-dependent effect,6.07 µM,27.3 µM,4.74 µM,14.8 µM,6.92 µM,Dose-dependent effect,inhibition in vivo at 80 mg/kg [14]: 48%; inhibition [15]: Dose-dependent effect; Activity [16]: Non-toxic; Activity [17]: Non-toxic
O=C(NCCCCCCS)c1cc(-c2cccnc2)n[nH]1,11.5 µM,18.1 µM,–,14.6 µM,Dose-dependent effect,19.3 µM,42.4 µM,9.4 µM,> 50 µM,22 µM,Dose-dependent effect,IC50 [18]: 0.015 µM; IC50 [19]: 0.221 µM; IC50 [20]: 0.029 µM; IC50 [21]: > 10 µM; IC50 [22]: 0.052 µM; IC50 [23]: > 10 µM; IC50 [24]: 0.026 µM; IC50 [25]: > 10 µM
